Results as given in ChEMBL document CHEMBL4385613, “Discovery of Conformational Control Inhibitors Switching off the Activated c-KIT and Targeting a Broad Range of Clinically Relevant c-KIT Mutants” (J Med Chem, 2019).

How the values were obtained:
[1] = tested on: Mast/stem cell growth factor receptor Kit (Homo sapiens), P10721 [V559D,V654A]; assay: Inhibition of human c-KIT […] V559D/V654A double mutant at 100 nM using poly (Glu,Tyr) 4:1 as substrate in presence of 33P-gamma-ATP by hotspot kinase assay relative to control
GISTT1 [2] = assay: Antiproliferative activity against human GISTT1 cells harboring heterozygous V560-Y578 del mutation assessed as reduction in cell viability by methylene blue staining based assay; type: functional
[3] = tested on: Mast/stem cell growth factor receptor Kit (Homo sapiens), P10721 [T670I]; assay: Inhibition of human c-KIT ATP binding domain exon 14 T670I single mutant at 10 nM using poly (Glu,Tyr) 4:1 as substrate in presence of 33P-gamma-ATP by hotspot kinase assay relative to control
GISTT1 [4] = assay: Antiproliferative activity against human GISTT1 cells harboring heterozygous V560-Y578 deletion mutant assessed as reduction in cell viability by MTS assay; type: functional
[5] = molecular target: Mast/stem cell growth factor receptor Kit (Homo sapiens, UniProt P10721, V654A); assay: Inhibition of human c-KIT ATP binding domain exon 13 V654A single mutant using poly (Glu,Tyr) 4:1 as substrate in presence of 33P-gamma-ATP by hotspot kinase assay
[6] = tested on: Mast/stem cell growth factor receptor Kit (Homo sapiens), P10721 [V560G]; assay: Inhibition of human c-KIT JM domain exon 11 V560G single mutant at 100 nM using poly (Glu,Tyr) 4:1 as substrate in presence of 33P-gamma-ATP by hotspot kinase assay relative to control
[7] = molecular target: Mast/stem cell growth factor receptor Kit (Homo sapiens, UniProt P10721, N822K/V560G); assay: Inhibition of human c-KIT A loop exon 11/17 V560G/N822K double mutant using poly (Glu,Tyr) 4:1 as substrate in presence of 33P-gamma-ATP by hotspot kinase assay
PC-3 = assay: Antiproliferative activity against human PC3 assessed as reduction in cell viability after 72 hrs by MTS assay; type: functional; settings: PC-3, 72 h
[8] = Volume of distribution at steady state in ICR mouse at 2 mg/kg, iv administered as single dose measured up to 24 hrs by LC-MS/MS analysis; type: ADME, organism-based; settings: in vivo, read-out: Vdss
[9] = tested on: Mast/stem cell growth factor receptor Kit (Homo sapiens), P10721 [D820Y]; settings: at 10 nM
Description: Inhibition of human c-KIT A loop exon 17 D820Y single mutant at 10 nM using poly (Glu,Tyr) 4:1 as substrate in presence of 33P-gamma-ATP by hotspot kinase assay relative to control

[10] = tested on: Mast/stem cell growth factor receptor Kit (Homo sapiens), P10721 [V654A]; assay: Inhibition of human c-KIT ATP binding domain exon 13 V654A single mutant at 100 nM using poly (Glu,Tyr) 4:1 as substrate in presence of 33P-gamma-ATP by hotspot kinase assay relative to control
Mus musculus = assay: Decrease in c-KIT phosphorylation in NOD-SCID mouse xenografted with human GIST430 cells harboring c-KIT exon 11 primary in-frame V560-L576 deletion mutant and exon 13 heterozygous secondary missense V654A mutant at 80 mg/kg, po measured after 8 hrs by immunoblotting analysis relative to control; type: functional
[11] = tested on: Mast/stem cell growth factor receptor Kit (Homo sapiens), P10721 [V559D,V654A]; assay: Inhibition of human c-KIT […] V559D/V654A double mutant at 10 nM using poly (Glu,Tyr) 4:1 as substrate in presence of 33P-gamma-ATP by hotspot kinase assay relative to control
[12] = tested on: Mast/stem cell growth factor receptor Kit (Homo sapiens), P10721 [Y823D]; settings: at 10 nM
Mast/stem cell growth factor receptor Kit (Homo sapiens), P10721 [Y823D], sequence (P10721 whole entry Y823D): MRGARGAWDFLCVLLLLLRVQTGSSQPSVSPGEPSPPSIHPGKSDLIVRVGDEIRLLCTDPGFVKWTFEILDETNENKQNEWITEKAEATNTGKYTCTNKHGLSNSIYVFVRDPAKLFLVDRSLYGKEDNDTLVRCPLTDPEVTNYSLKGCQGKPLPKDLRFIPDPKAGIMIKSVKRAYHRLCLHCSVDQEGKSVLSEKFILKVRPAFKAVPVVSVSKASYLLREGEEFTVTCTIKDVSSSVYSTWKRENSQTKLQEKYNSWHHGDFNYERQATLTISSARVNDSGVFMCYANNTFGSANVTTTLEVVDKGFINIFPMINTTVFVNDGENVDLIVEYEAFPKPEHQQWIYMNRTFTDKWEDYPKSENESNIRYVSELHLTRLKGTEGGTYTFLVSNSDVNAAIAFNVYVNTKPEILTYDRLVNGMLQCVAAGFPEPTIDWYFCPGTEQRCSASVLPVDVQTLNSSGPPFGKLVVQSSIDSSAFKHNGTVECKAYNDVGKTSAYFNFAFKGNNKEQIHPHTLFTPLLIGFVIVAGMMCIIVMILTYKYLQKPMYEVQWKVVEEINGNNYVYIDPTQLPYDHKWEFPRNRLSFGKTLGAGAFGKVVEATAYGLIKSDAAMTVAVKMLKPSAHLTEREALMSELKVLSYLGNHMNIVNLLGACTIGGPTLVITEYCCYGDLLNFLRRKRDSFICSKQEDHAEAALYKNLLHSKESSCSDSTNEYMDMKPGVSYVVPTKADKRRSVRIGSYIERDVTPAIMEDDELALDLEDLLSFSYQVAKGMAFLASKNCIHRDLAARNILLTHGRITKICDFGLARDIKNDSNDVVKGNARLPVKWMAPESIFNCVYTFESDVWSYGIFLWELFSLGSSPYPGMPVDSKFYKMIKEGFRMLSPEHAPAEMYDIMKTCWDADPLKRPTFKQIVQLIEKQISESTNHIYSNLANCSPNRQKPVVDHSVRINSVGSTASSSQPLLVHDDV
Description: Inhibition of human c-KIT A loop exon 17 Y823D single mutant at 10 nM using poly (Glu,Tyr) 4:1 as substrate in presence of 33P-gamma-ATP by hotspot kinase assay relative to control

Mast/stem cell growth factor receptor Kit (Homo sapiens), P10721 [V559D,V654A], sequence (P10721 whole entry V559D/V654A): as the sequence (P10721 whole entry Y823D) above, with V559D, V654A, D823Y counted along it
Mast/stem cell growth factor receptor Kit (Homo sapiens, UniProt P10721, V654A), sequence (P10721 26-976 V654A limits assumed): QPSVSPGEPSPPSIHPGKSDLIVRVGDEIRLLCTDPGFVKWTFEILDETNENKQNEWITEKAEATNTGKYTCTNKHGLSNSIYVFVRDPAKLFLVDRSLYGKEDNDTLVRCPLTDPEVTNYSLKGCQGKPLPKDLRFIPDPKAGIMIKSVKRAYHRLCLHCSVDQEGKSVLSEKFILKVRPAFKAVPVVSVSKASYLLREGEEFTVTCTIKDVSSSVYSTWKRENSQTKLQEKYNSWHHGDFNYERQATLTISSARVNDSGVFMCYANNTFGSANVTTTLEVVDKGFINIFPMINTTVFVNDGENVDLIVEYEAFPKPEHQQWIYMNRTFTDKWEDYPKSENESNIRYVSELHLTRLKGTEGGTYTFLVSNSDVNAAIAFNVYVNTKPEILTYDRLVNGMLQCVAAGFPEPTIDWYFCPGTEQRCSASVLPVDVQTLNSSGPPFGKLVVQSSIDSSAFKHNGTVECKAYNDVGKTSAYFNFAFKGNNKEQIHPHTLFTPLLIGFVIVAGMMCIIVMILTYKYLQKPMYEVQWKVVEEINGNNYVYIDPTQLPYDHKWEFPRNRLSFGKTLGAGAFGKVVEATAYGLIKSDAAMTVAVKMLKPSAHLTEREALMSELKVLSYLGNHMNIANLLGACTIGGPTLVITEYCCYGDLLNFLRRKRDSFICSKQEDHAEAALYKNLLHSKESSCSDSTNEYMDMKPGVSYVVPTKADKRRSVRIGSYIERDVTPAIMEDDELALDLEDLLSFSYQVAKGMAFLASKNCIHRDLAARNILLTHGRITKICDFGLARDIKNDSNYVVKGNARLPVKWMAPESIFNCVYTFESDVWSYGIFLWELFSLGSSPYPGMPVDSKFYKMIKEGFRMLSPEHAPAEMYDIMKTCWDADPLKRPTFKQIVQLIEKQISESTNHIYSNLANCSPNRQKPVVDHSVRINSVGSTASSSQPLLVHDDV
Mast/stem cell growth factor receptor Kit (Homo sapiens), P10721 [V654A], sequence (P10721 whole entry V654A, the tested form may be a part): as the sequence (P10721 whole entry Y823D) above, with V654A, D823Y counted along it
Mast/stem cell growth factor receptor Kit (Homo sapiens), P10721 [D820Y], sequence (P10721 whole entry D820Y, the tested form may be a part): as the sequence (P10721 whole entry Y823D) above, with D820Y, D823Y counted along it
Mast/stem cell growth factor receptor Kit (Homo sapiens), P10721 [T670I], sequence (P10721 whole entry T670I, the tested form may be a part): as the sequence (P10721 whole entry Y823D) above, with T670I, D823Y counted along it
Mast/stem cell growth factor receptor Kit (Homo sapiens), P10721 [V560G], sequence (P10721 whole entry V560G, the tested form may be a part): as the sequence (P10721 whole entry Y823D) above, with V560G, D823Y counted along it
Mast/stem cell growth factor receptor Kit (Homo sapiens, UniProt P10721, N822K/V560G), sequence (P10721 26-976 V560G/N822K limits assumed): as the sequence (P10721 26-976 V654A limits assumed) above, with V535G, A629V, N797K counted along it

- inhibition [1]: 43%
- inhibition [3]: 55%
- IC50 [5]: 4.14 nM
- inhibition [6]: 99%
- IC50 [7]: 0.18 nM
- GI50 (PC-3): > 20000 nM
- Vd [8]: 7.1 L/kg
- inhibition [9]: 99%
- inhibition [10]: 75%
- inhibition [11]: 10%
- inhibition [12]: 97%
SMILES: CCc1cc(NC(=O)Nc2ccc(-c3cnc(Nc4cc(N5CCN(CC)CC5)ncn4)s3)cc2)no1
- GI50 (GISTT1 [2]): 2.2 nM
- GI50 (GISTT1 [4]): 2.2 nM
- inhibition in vivo at 80 mg/kg (Mus musculus): 95.9%
